According to patent US5747524A, “Cannabinoid receptor antagonists” (Eli Lilly and Company, priority 1996, dated 1998):
pIC50, pKi: −log10 of the molar value.

Experiments:
[1] = test system: anandamide-induced sedation in C57BL/6J mice; test: Open Field Assay of mouse behavior (Digiscan Automated Open Field), sedation caused by anandamide; format: in vivo; conditions: for Effect on animal's movements (in words): Horizontal Exploratory Activity and Total Distance Exploratory Behavior
Description: In Vivo Effects of Anandamide Antagonists
The Open Field Assay evaluates the motion (both horizonal and vertical) of a mouse when placed in a large, open area. […] The mouse is placed in the center of a large area of a device which measues the number of vertical and horizontal movements of the mouse (Digiscan Automated Open Field). Each test session is of 5 minute duration. At the end of this time period, the mouse is removed from the scanner and the recorded data are automatically analyzed and satisically evaluated. Further details are given in Crawley, J., J. Neurosci., 12(9), p. 3380-3391 (1992).

[2] = test system: CB-1 receptor (CHO cells); test: Assay of cAMP accumulation in CHO cells expressing the cannabinoid receptor (forskolin, anandamide); format: cell-based
Description: Assay of CAMP accumulation.
CHO cells were preincubated in growth media with forskolin (10^-6 M) with or without anandamide for 4 hours Cyclic AMP accumulation was measured over 5 minutes after exchanging the growth media with serum free media containing forskolin (10^-6 M) and anandamide, with or without antagonists as indicated. Data are the mean ±S.E. of three experiments performed in triplicate. […] . […] ;

[3] = target: human CB-1 receptor (Homo sapiens, UniProt P21554); test: Radioligand binding assay, competition with [^3 H]CP55,940 on Ltk cell membranes
[4] = test system: N-type calcium channel via the CB-1 receptor (N18 cells); test: Effect on N-type calcium channel currents, whole-cell voltage clamp in N18 neuroblastoma cells; format: cell-based
Description: Effect on N-type Calcium Channel Currents
Specifically, the compounds of formula I open the N-type calcium channels, which are closed by either anandamide or the cannabinoids (see: Mackie, K. and Hille, B., Proc. Natl. Acad. Sci., 89, p.3825-3829 (1992)).
N18 (neuroblastoma cell line) cells (passages 32-41) were grown on glass coverslip fragments in DMEM plus 5% (fetal bovine serum)(FBS, using standard cell culture techniques. Six to 14 days before recording, cells were "differentiated" by changing the medium to DMEM plus 0.5% FBS plus 2% dimethylsulfoxide. In PTX (Pertussis Toxin) experiments, differentiated cells were grown for an additional 16-20 hours in medium containing 500 ng/ml PTX. Control cells were treated identically, except that […].
Currents were recorded using the whole-cell voltage-clamp technique. Pipettes were pulled from hematocrit glass (VWR) and fire polished. The pipette solution contained (in mM) 100 CsCl, 10 EGTA, 5 MgCl2, 40 HEPES, 3 Na2 ATP, and 0.2 GTP, pH 7.30 with CsOH. For recording, a coverslip containing cells was transferred to the recording chamber (200 μl) and constantly perfused at a rate of 1-2 ml/min with an external solution containing (in mM) 160 NaCl, 5 CaCl2, 4 KCl, 1 MgCl2, 10 HEPES, and 8 glucose, pH 7.35 with NaOH. Tetrodotoxin (200 nM) was added to block voltage-gated sodium currents, and bovine serum albumin (3 μM) was present in all recording solutions to decrease adsorption of cannabinoids. Subsequently the cannabinoid agonist WIN 55,212 and the compounds of this invention were added. ICa was measured near the end of a 25-msec depolarizing pulse to 0 mV and was defined as that component of the current sensitive to 100 μM CdCl2. Solution reservoirs were selected by means of a series of solenoid valves, and solution changes were accomplished in <1 min. In all experiments the cells were held under voltage clamp at a holding potential of -65 mV. Voltage protocols were generated and data were digitized, recorded, and analyzed using BASIC-FASTLAB (Indec Systems, Capitola, Calif.). Currents were sampled at 4 kHz and junction potentials are uncorrected. To control for potential response variations with passage number and duration of differentiation, experimental and control measurements were alternated whenever possible. Where appropriate, data are expressed as mean ±standard error.

[5] = test system: N-type calcium channel via the CB-1 receptor (N18 cells); conditions: Felder, et al.; cited from earlier work
[6] = Vehicle + anandamide, 2 mg/kg i.p., 5 min session

Chain of human CB-1 receptor (P21554 whole entry): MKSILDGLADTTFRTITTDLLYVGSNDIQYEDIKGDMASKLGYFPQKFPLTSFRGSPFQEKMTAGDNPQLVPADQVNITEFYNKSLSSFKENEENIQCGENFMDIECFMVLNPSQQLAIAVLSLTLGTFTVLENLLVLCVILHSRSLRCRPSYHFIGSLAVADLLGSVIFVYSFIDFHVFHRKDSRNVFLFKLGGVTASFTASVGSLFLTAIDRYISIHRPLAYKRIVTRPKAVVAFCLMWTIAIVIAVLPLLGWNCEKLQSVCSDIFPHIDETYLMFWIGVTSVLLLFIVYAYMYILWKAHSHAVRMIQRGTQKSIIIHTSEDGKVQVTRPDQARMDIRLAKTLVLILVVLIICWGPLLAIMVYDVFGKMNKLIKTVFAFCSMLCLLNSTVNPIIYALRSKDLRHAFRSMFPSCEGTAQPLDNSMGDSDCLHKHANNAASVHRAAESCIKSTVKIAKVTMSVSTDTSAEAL

CCCCC/C=C\C/C=C\C/C=C\C/C=C\CCCC(=O)NCCO [Anandamide, N-ethanolamine amide of arachidonic acid, reference compound]
Effect on animal's movements (in words) [1]: severe depression and sedation of the animal's movements
Horizontal Exploratory Behavior, Digiscan Horizontal Activity/5 min. [1, 6]: 200
Total Distance Exploratory Behavior, Digiscan Total Distance/5 min [1, 6]: 50
effect on cAMP (in words) [2]: inhibits the increase of cAMP induced by the forskolin
cAMP accumulation ([2]; FSK + ANM, no antagonist): 5 pM/mL
cAMP accumulation ([2]; anandamide (1 μM) alone): < 5 pM/mL

COc1ccc2c(C(=O)c3ccc(C#N)cc3)c(-c3ccc(C)cc3)oc2c1 [Example 3, [6-Methoxy-2-(4-methylphenyl)benzo[b]furan-3-yl][4-cyanophenyl]methanone]
pKi [3]: 6.87

COc1ccc(-c2oc3cc(OC)ccc3c2C(=O)c2ccc(OS(=O)(=O)C(F)(F)F)cc2)cc1 [Example 5, [6-Methoxy-2-(4-methoxyphenyl)-benzo[b]furan-3-yl]-3-(phenyl-4-triflate)-methanone]
pKi [3]: 6.31

COc1ccc(-c2oc3cc(OC)ccc3c2C(=O)c2ccc(C#N)cc2)cc1 [Example 6, [6-Methoxy-2-(4-methoxyphenyl)-benzo[b]furan-3-yl]-3-(4-cyanophenyl)-methanone]
Total Distance Exploratory Behavior, Digiscan Total Distance/5 min ([1]; Cmpd.6 20 mg/kg i.p., 28 min before anandamide 2 mg/kg i.p., *p < 0.01): 300
Horizontal Exploratory Behavior, Digiscan Horizontal Activity/5 min. ([1]; Cmpd.6 20 mg/kg i.p., 28 min before anandamide 2 mg/kg i.p., *p < .05): 900
Effect on animal's movements (in words) [1]: reversed
Effect on N-type calcium channel (in words) [4]: opening the N-type calcium channel via the CB-1 receptor
Cell current ([4]; Cmpd.6 (1 μM) alone): -150 pA
Cell current ([4]; Oxo-M + Cmpd.6 (specificity control)): -60 pA
Cell current ([4]; WIN + Cmpd.6): -150 pA

CCCCOc1ccc(C(=O)c2c(-c3ccc(OC)cc3)sc3cc(OC)ccc23)cc1 [Example 13, [6-Methoxy-2-(4-methoxyphenyl)benzo[b]thien-3-yl][4-n-butyloxyphenyl]methanone]
pKi [3]: 6.37

COc1ccc(Cc2c(-c3ccc(OC)cc3)oc3cc(OC)ccc23)cc1 [Example 16, [6-Methoxy-2-(4-methoxyphenyl)benzo[b]furan-3-yl][4-methoxyphenyl]methane]
pKi [3]: 5.28

COc1ccc(C(=O)c2c(-c3ccc(OC)cc3)sc3cc(OC)ccc23)cc1 [Example 7, [6-methoxy-2-(4-methoxyphenyl)benzo[b]thien-3-yl][4-methoxyphenyl]methanone]
pKi [3]: 5.44

Cc1c(C(=O)c2cccc3ccccc23)c2cccc3c2n1[C@H](CN1CCOCC1)CO3 [WIN 55,212, reference compound]
Effect on N-type calcium channel (in words) [4]: inhibits the N-type calcium channel via the CB-1 receptor
Cell current ([4]; WIN 55,212 (100 nM) alone, Table 3): -60 pA
Current after WIN 55,212 ([4]; agonist inhibits N-type calcium channel): -65 pA
Action compared with anandamide (in words) [5]: acts the same as anandamide

COc1ccc(-c2sc3cc(OC)ccc3c2C(=O)c2ccc(O)cc2)cc1 [Example 8, [6-methoxy-2-(4-methoxyphenyl)benzo[b]thien-3-yl][4-hydroxyphenyl]methanone]
pKi [3]: 6.02

CCCOc1ccc(C(=O)c2c(-c3ccc(OC)cc3)sc3cc(OC)ccc23)cc1 [Example 12, [6-Methoxy-2-(4-methoxyphenyl)benzo[b]thien-3-yl] [4-n-propyloxyphenyl]methanone]
pKi [3]: 5.81

C=C[C@@]1(C)CC(=O)[C@]2(O)[C@@]3(C)[C@@H](O)CCC(C)(C)[C@@H]3[C@H](O)[C@H](OC(C)=O)[C@@]2(C)O1 [Forskolin, reference compound]
effect on cAMP (in words) [2]: raises the level of cAMP above the basal level
cAMP accumulation ([2]; forskolin (FSK) alone, 10^-6 M): 30 pM/mL

COc1ccc(-c2oc3cc(OC)ccc3c2C(=O)c2ccc(O)cc2)cc1 [Example 4, [6-Methoxy-2-(4-methoxyphenyl)-benzo[b]furan-3-yl]-3-(4-hydroxyphenyl)-methanone]
pKi [3]: 5.39

COc1ccc(-c2oc3cc(OC)ccc3c2C(O)c2ccc(OC)cc2)cc1 (stereo not shown) [Example 15, [6-Methoxy-2-(4-methoxyphenyl)benzo[b]furan-3-yl] [4-methoxyphenyl]methanol]
pKi [3]: 4.59
